Laboratory results: the Kinase Knowledgebase extract (Sharma et al. 2016)

Molecular target: MAPK14 (human) (UniProt Q16539)
Test: Inhibition of MAPK14 Kinase Activity

MAPK14 (human), sequence (Q16539 whole entry, looked up): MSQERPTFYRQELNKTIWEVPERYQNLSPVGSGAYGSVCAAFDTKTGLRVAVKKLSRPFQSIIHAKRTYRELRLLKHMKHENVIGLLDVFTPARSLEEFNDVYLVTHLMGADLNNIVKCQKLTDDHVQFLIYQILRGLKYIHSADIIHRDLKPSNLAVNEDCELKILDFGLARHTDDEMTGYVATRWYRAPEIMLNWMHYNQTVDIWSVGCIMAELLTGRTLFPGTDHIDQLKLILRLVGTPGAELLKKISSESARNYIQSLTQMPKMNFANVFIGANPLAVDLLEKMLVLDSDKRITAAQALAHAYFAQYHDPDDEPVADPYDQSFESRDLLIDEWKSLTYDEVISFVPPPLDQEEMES

| SMILES | IC50 [nM] |
| --- | --- |
| Cc1ccccc1Nc1cc2[nH]c(=O)n(CC3CCCCC3)c2cc1N1CCN(C)CC1 | < 1000 |
| CNCC(C)(C)n1c(=O)[nH]c2cc(Nc3ccccc3C)ccc21 | < 1000 |
| CS(=O)(=O)N1CCC(n2c(=O)[nH]c3cc(Nc4ccccc4F)ccc32)C1 (configuration not stated) | < 1000 |
| O=c1[nH]c2cc(Nc3ccccc3)ccc2n1CCc1ccccc1 | < 1000 |
| O=c1[nH]c2cc(Nc3ccccc3)ccc2n1CC1CCCCC1 | < 1000 |
| Cc1ccccc1Nc1ccc2c(c1)[nH]c(=O)n2C(C)(C)CN | < 1000 |
| Cc1ccccc1Nc1ccc2c(c1)[nH]c(=O)n2C(C)(C)CN(C)C | < 1000 |
| CS(=O)(=O)N1CCC(n2c(=O)[nH]c3cc(Nc4ccc(F)cc4)ccc32)C1 (configuration not stated) | < 1000 |
| CCS(=O)(=O)N1CCC(n2c(=O)[nH]c3cc(Nc4ccccc4C)ccc32)C1 (configuration not stated) | < 1000 |
| CN(C)CC(C)(C)n1c(=O)[nH]c2cc(Nc3ccccc3F)ccc21 | < 1000 |
| O=c1[nH]c2cc(Nc3ccccc3)ccc2n1-c1ccccc1 | < 1000 |
| O=c1[nH]c2cc(Nc3ccc(F)cc3)ccc2n1C1CCNC1 (configuration not stated) | < 1000 |
| O=c1[nH]c2cc(Nc3ccccc3)ccc2n1C1CCCC1 | < 1000 |
| Cc1ccccc1Nc1ccc2c(c1)[nH]c(=O)n2C1CCN(S(C)(=O)=O)C1 (configuration not stated) | < 1000 |
| O=c1[nH]c2cc(Nc3ccccc3)ccc2n1Cc1c(F)cccc1F | < 1000 |
| CN1CCC(n2c(=O)[nH]c3cc(Nc4ccc(F)cc4F)ccc32)C1 (configuration not stated) | < 1000 |
| CC(C1CCCCC1)n1c(=O)[nH]c2cc(Nc3ccccc3)ccc21 (configuration not stated) | < 1000 |

| SMILES | IC50 [nM] |
| --- | --- |
| CN1CCN(c2cc3c(cc2Nc2ccccc2)[nH]c(=O)n3CC2CCCCC2)CC1 | < 1000 |
| Cc1ccc(Nc2ccc3c(c2)[nH]c(=O)n3CC2CCCCC2)cc1N | < 1000 |
| O=c1[nH]c2cc(Nc3ccc(F)cc3F)ccc2n1CC1CCCCC1 | < 1000 |
| COc1ccccc1Nc1ccc2c(c1)[nH]c(=O)n2CC1CCCCC1 | < 1000 |
| O=c1[nH]c2cc(Nc3ccc(F)cc3F)ccc2n1C1CCNC1 (configuration not stated) | < 1000 |
| C=C/C(=C\C=C(/C)F)Nc1ccc2c(c1)[nH]c(=O)n2C(C)(C)CN(C)C | < 1000 |
| O=c1[nH]c2cc(Nc3ccccc3F)c(N3CCNCC3)cc2n1CC1CCCCC1 | < 1000 |
| Cc1ccccc1Nc1ccc2c(c1)[nH]c(=O)n2CC1CCCCC1 | < 1000 |
| Cc1ccccc1Nc1ccc2c(c1)[nH]c(=O)n2C1CCNC1 (configuration not stated) | < 1000 |
| CC(C)(C)n1c(=O)[nH]c2cc(Nc3ccccc3)ccc21 | < 1000 |
| CNCC(C)(C)n1c(=O)[nH]c2cc(Nc3ccccc3)ccc21 | < 1000 |
| CC(C)(CN)n1c(=O)[nH]c2cc(Nc3ccc(F)cc3F)ccc21 | < 1000 |
| CCS(=O)(=O)N1CCC(n2c(=O)[nH]c3cc(Nc4ccc(F)cc4)ccc32)C1 (configuration not stated) | < 1000 |
| CN1CCC(n2c(=O)[nH]c3cc(Nc4ccccc4)ccc32)C1 (configuration not stated) | < 1000 |
| CC(C)(CN)n1c(=O)[nH]c2cc(Nc3ccccc3)ccc21 | < 1000 |
| COc1cccc(Cn2c(=O)[nH]c3cc(Nc4ccccc4)ccc32)c1 | < 1000 |
| Cc1ccccc1Nc1ccc2c(c1)[nH]c(=O)n2C1CCN(C)C1 (configuration not stated) | < 1000 |

The remaining lines, values ahead:

| IC50 [nM] | SMILES |
| --- | --- |
| < 1000 | Cc1ccccc1Nc1cc2[nH]c(=O)n(CC3CCCCC3)c2cc1N(C)CCN(C)C |
| < 1000 | O=c1[nH]c2cc(Nc3ccc(F)cc3)ccc2n1CC1CCCCC1 |
| < 1000 | O=c1[nH]c2cc(Nc3ccc(F)c(F)c3)ccc2n1CC1CCCCC1 |
| < 1000 | CN1CCN(c2cc3c(cc2Nc2ccccc2F)[nH]c(=O)n3C2CCCC2)CC1 |
| < 1000 | O=c1[nH]c2cc(Nc3cccc(F)c3)ccc2n1CC1CCCCC1 |
| < 1000 | O=c1[nH]c2cc(Nc3ccccc3)ccc2n1C1CCNC1 (configuration not stated) |
| < 1000 | CN1CCC(n2c(=O)[nH]c3cc(Nc4ccc(F)cc4)ccc32)C1 (configuration not stated) |
| < 1000 | CN1CCC(n2c(=O)[nH]c3cc(Nc4ccccc4F)ccc32)C1 (configuration not stated) |
| < 1000 | CC(c1ccccc1)n1c(=O)[nH]c2cc(Nc3ccccc3)ccc21 (configuration not stated) |
| < 1000 | CCS(=O)(=O)N1CCC(n2c(=O)[nH]c3cc(Nc4ccccc4)ccc32)C1 (configuration not stated) |
| < 1000 | O=c1[nH]c2cc(Nc3ccccc3F)ccc2n1C1CCNC1 (configuration not stated) |
| < 1000 | CC(C)(CN)n1c(=O)[nH]c2cc(Nc3ccccc3F)ccc21 |
| < 1000 | O=c1[nH]c2cc(Nc3ccccc3)ccc2n1C1CCCc2ccccc21 (configuration not stated) |
| < 1000 | CCS(=O)(=O)N1CCC(n2c(=O)[nH]c3cc(Nc4ccc(F)cc4F)ccc32)C1 (configuration not stated) |
| < 1000 | O=c1[nH]c2cc(Nc3ccccc3)ccc2n1Cc1ccccc1 |
| < 1000 | CC(C)(CN)n1c(=O)[nH]c2cc(Nc3ccc(F)cc3)ccc21 |
| < 1000 | Cc1ccccc1Nc1cc2[nH]c(=O)n(CC3CCCCC3)c2cc1N(C)CCCN(C)C |
| < 1000 | CS(=O)(=O)N1CCC(n2c(=O)[nH]c3cc(Nc4ccc(F)cc4F)ccc32)C1 (configuration not stated) |
| < 1000 | O=c1[nH]c2cc(Nc3ccccc3)c(N3CCNCC3)cc2n1CC1CCCCC1 |
| < 1000 | O=c1[nH]c2cc(Nc3ccccc3)ccc2n1CC1CCCO1 (configuration not stated) |
| < 1000 | O=c1[nH]c2cc(Nc3ccccc3F)ccc2n1CC1CCCCC1 |
| < 1000 | CCS(=O)(=O)N1CCC(n2c(=O)[nH]c3cc(Nc4ccccc4F)ccc32)C1 (configuration not stated) |
| < 1000 | CN(C)CC(C)(C)n1c(=O)[nH]c2cc(Nc3ccc(F)cc3F)ccc21 |
| < 1000 | O=c1[nH]c2cc(Nc3ccccc3)ccc2n1C1CCc2ccccc21 (configuration not stated) |
| < 1000 | CNCC(C)(C)n1c(=O)[nH]c2cc(Nc3ccc(F)cc3)ccc21 |
| < 1000 | O=c1[nH]c2cc(Nc3ccccc3)ccc2n1Cc1cccnc1 |
| < 1000 | CN(C)CC(C)(C)n1c(=O)[nH]c2cc(Nc3ccccc3)ccc21 |
| < 1000 | CNCC(C)(C)n1c(=O)[nH]c2cc(Nc3ccccc3F)ccc21 |
